Source: patent publication US5436229A, “Bisulfite adducts of arginine aldehydes” (Eli Lilly and Company, priority 1994, dated 1995)
Non-standard residues stand in square brackets, D forms with d. Residues, ends and D or L forms follow the SMILES beside them. dCha = N[C@H](CC1CCCCC1)C(=O)O

Key:
[1] = target: human thrombin (Homo sapiens, UniProt P00734); assay: Thrombin amidase inhibition (Kass), chromogenic substrate; type: biochemical
Outline: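 Purified human thrombin (8 NIH units/ml solution) mixed with compound in 50% aqueous methanol and 0.03M Tris, 0.15M NaCl, pH 7.4; chromogenic substrate (0.25 mg/ml solution) added, p-nitroaniline release followed at 405 nm. Free thrombin read from a standard curve; Kass (L/mol) is the mean over a range of compound concentrations.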

[2] = target: T1, factor Xa (Homo sapiens, UniProt P00742); assay: Serine protease inhibition (Kass), factor Xa; type: biochemical
T1 construct: Human factors X, Xa, IXa, XIa, and XIIa are purchased from Enzyme Research Laboratories; purchased Enzyme Research Laboratories, South Bend, Ind
T1 sequence (P00742 235-488 limits assumed): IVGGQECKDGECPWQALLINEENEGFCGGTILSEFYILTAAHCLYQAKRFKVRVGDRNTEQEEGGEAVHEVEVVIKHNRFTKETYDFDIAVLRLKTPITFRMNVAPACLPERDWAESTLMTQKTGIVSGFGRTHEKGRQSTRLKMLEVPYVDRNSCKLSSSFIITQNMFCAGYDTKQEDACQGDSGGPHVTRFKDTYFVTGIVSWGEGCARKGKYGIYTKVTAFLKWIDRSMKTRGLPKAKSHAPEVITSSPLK
T1 sequence (P00742 41-179 partner limits assumed): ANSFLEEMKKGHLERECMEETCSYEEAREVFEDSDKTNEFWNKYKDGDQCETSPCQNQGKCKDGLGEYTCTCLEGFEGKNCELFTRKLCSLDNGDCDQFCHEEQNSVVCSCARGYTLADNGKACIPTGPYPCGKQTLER
Outline: (§1)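 Chromogenic p-nitroanilide substrate assays run as for human thrombin; trypsin with N-Benzoyl-Phe-Val-Arg-p-nitroanilide, human factor Xa with N-Benzoyl-Ile-Glu-Gly-Arg-p-nitroanilide. Values are association constants (Kass).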

[3] = target: T2, Bovine trypsin (Bos taurus, UniProt P00760); assay: Serine protease inhibition (Kass), trypsin; type: biochemical
T2 construct: Bovine trypsin is purchased from Worthington Biochemicals; purchased Worthington Biochemicals, Freehold, N.J
T2 sequence (P00760 24-246): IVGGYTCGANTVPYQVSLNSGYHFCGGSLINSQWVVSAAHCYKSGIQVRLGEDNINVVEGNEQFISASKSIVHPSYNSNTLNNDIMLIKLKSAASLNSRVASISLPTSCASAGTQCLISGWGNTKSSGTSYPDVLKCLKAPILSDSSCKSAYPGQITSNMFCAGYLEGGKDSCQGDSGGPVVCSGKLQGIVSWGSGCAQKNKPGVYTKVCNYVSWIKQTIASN
Outline: as §1

[4] = target: T3, Human plasmin (Homo sapiens, UniProt P00747); assay: Serine protease inhibition (Kass), plasmin; type: biochemical
T3 construct: Human plasmin is purchased from Boehringer Mannheim; purchased Boehringer Mannheim, Indianapolis, Ind
T3 sequence (P00747 581-810 limits assumed): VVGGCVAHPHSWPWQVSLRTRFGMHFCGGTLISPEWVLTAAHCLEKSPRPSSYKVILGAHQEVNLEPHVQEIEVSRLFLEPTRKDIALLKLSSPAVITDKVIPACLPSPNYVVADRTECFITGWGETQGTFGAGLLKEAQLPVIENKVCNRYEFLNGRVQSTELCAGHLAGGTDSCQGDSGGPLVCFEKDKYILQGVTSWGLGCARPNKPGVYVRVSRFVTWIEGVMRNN
T3 sequence (P00747 97-580 partner limits assumed): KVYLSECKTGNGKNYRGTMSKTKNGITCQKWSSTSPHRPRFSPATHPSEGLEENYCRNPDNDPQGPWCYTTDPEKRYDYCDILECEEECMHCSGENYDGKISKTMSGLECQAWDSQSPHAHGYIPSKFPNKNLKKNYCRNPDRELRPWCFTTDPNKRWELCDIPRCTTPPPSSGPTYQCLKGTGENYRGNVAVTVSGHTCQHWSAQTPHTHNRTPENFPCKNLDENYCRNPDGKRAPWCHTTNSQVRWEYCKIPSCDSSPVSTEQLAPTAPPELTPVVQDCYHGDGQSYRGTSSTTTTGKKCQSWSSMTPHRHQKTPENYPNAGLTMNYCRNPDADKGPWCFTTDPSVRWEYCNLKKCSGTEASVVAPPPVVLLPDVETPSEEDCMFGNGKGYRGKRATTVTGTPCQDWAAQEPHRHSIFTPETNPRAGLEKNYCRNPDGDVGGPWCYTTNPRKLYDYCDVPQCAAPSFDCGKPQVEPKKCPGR
Outline: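 Chromogenic enzyme assays run as for human thrombin, giving association constants (Kass). Human plasmin used with H-D-Val-Leu-Lys-p-nitroanilide; t-PA (single-chain nt-PA or modified mt-PA6) with H-D-Ile-Pro-Arg-p-nitroanilide.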

[5] = target: T4, tissue plasminogen activator (t-PA) (Homo sapiens, UniProt P00750); assay: Serine protease inhibition (Kass), t-PA; type: biochemical
T4 construct: purchased American Diagnostica, Greenwich, Conn
T4 sequence (P00750 36-562): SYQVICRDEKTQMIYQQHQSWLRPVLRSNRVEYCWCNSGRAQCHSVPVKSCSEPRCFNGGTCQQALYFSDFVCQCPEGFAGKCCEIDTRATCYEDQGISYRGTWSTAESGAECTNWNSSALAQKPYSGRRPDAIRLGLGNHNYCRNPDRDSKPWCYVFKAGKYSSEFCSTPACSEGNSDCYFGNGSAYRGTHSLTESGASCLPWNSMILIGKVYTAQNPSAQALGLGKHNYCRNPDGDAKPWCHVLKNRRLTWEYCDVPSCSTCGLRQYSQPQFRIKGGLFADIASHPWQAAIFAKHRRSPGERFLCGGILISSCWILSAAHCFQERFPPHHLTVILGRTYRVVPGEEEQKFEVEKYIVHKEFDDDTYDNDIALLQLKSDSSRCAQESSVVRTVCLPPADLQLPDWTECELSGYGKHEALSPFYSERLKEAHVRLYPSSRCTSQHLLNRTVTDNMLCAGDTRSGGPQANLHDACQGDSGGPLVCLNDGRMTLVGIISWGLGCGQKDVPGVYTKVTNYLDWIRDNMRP

[6] = tested on: human plasma; assay: Human plasma anticoagulation, thrombin time (TT); type: biochemical
Outline: (§2)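 Compounds added across a wide concentration range to human plasma; APTT, PT and TT clotting times measured on a coagulation instrument, bovine thrombin used for plasma assays. Concentration doubling clotting time estimated by linear extrapolation.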

[7] = tested on: human plasma; assay: Human plasma anticoagulation, activated partial thromboplastin time (APTT); type: biochemical
Outline: as §2

[8] = tested on: human plasma; assay: Human plasma anticoagulation, prothrombin time (PT); type: biochemical
Outline: as §2

[9] = Index of Bioavailability (plasma TT AUC, oral vs i.v.); type: in vivo; conditions: rats, oral vs i.v. bolus
From the text: Assays are done in duplicate and averaged.
Each sample population represents alternating sequential time points.

SMILES	Kass Human Thrombin [1]	Kass Xa [2]	Kass Trypsin [3]	Kass Plasmin [4]	Kass t-PA [5]	2 × Clotting time TT [6]	2 × Clotting time APTT [7]	2 × Clotting time PT [8]	Percent Relative Activity (Index of Bioavailability) [9]
Cl.N=C(N)NCCC[C@@H](C=O)NC(=O)[C@@H]1CCCN1C(=O)[C@@H](Cc1ccccc1)NC(=O)c1cc2ccccc2cn1 [Example 46, N-(isoquinolinyl-2-carbonyl)-D-phenylalanyl-L-Prolinyl-L-Arginine Aldehyde Hydrochloride]	110 L/mol × 10^6	0.16 L/mol × 10^6	22 L/mol × 10^6	0.55 L/mol × 10^6	0.32 L/mol × 10^6	35 ng/mL	1,100 ng/mL	1,400 ng/mL	1%
CCOC(=O)N[C@H](Cc1ccccc1)C(=O)N1CCC[C@H]1C(=O)N[C@H](C=O)CCCNC(=N)N.Cl [Example 77, N-(ethoxycarbonyl)-D-phenylalanyl-L-Prolinyl-L-Arginine Aldehyde Hydrochloride]	170 L/mol × 10^6	2.3 L/mol × 10^6	240 L/mol × 10^6	16 L/mol × 10^6	2.5 L/mol × 10^6	22 ng/mL	390 ng/mL	2,000 ng/mL	14%
CC(=O)N[C@H](CC1CCCCC1)C(=O)N1CCC[C@H]1C(=O)N[C@H](C=O)CCCNC(=N)N.Cl [Example 72, N-(acetyl)-D-cyclohexylalanyl-L-Prolinyl-L-Arginine Aldehyde Hydrochloride] (Ac-[dCha]-Pro-Arg-aldehyde)	26 L/mol × 10^6	1.1 L/mol × 10^6	12 L/mol × 10^6	0.61 L/mol × 10^6	0.035 L/mol × 10^6	92 ng/mL	1,900 ng/mL	3,500 ng/mL	9%
Cl.Cn1c(C(=O)N[C@H](Cc2ccccc2)C(=O)N2CCC[C@H]2C(=O)N[C@H](C=O)CCCNC(=N)N)cc2ccccc21 [Example 45, N-(1-methylindolyl-2-carbonyl)-D-phenylalanyl-L-Prolinyl-L-Arginine Aldehyde Hydrochloride]	850 L/mol × 10^6	0.51 L/mol × 10^6	120 L/mol × 10^6	7.9 L/mol × 10^6	31 L/mol × 10^6	43 ng/mL	440 ng/mL	870 ng/mL	2%
Cl.N=C(N)NCCC[C@@H](C=O)NC(=O)[C@@H]1CCCN1C(=O)[C@@H](Cc1ccccc1)NS(=O)(=O)c1ccc(F)cc1F [Example 58, N-(2,4-difluorophenylsulfonyl)-D-phenylalanyl-L-Prolinyl-L-Arginine Aldehyde Hydrochloride]	230 L/mol × 10^6	11 L/mol × 10^6	160 L/mol × 10^6	25 L/mol × 10^6	2.4 L/mol × 10^6	21 ng/mL	350 ng/mL	940 ng/mL	6%
CC(C)S(=O)(=O)N[C@H](Cc1ccccc1)C(=O)N1CCC[C@H]1C(=O)N[C@H](C=O)CCCNC(=N)N.Cl [Example 55, N-(isopropylsulfonyl)-D-phenylalanyl-L-Prolinyl-L-Arginine Aldehyde Hydrochloride]	460 L/mol × 10^6	6.0 L/mol × 10^6	260 L/mol × 10^6	25 L/mol × 10^6	3.5 L/mol × 10^6	13 ng/mL	270 ng/mL	510 ng/mL	10%
Cl.N=C(N)NCCC[C@@H](C=O)NC(=O)[C@@H]1CCCN1C(=O)[C@@H](Cc1ccccc1)NCC1CCCCC1 [Example 74, N-(cyclohexylmethyl)-D-phenylalanyl-L-Prolinyl-L-Arginine Aldehyde Hydrochloride]	480 L/mol × 10^6	0.11 L/mol × 10^6	69 L/mol × 10^6	0.49 L/mol × 10^6	0.046 L/mol × 10^6	16 ng/mL	860 ng/mL	1,200 ng/mL	1%
CCS(=O)(=O)N[C@H](Cc1ccccc1)C(=O)N1CCC[C@H]1C(=O)N[C@H](C=O)CCCNC(=N)N.Cl [Example 52, N-(ethylsulfonyl)-D-phenylalanyl-L-Prolinyl-L-Arginine Aldehyde Hydrochloride]	450 L/mol × 10^6	2.6 L/mol × 10^6	260 L/mol × 10^6	31 L/mol × 10^6	2.9 L/mol × 10^6	9 ng/mL	260 ng/mL	660 ng/mL	31%
Cl.N=C(N)NCCC[C@@H](C=O)NC(=O)[C@@H]1CCCN1C(=O)[C@@H](Cc1ccccc1)NC(=O)c1cccnc1 [Example 47, N-(nicotinoyl)-D-phenylalanyl-L-Prolinyl-L-Arginine Aldehyde Hydrochloride]	58 L/mol × 10^6	0.080 L/mol × 10^6	12 L/mol × 10^6	0.41 L/mol × 10^6	0.17 L/mol × 10^6	47 ng/mL	1,300 ng/mL	1,700 ng/mL	3%
CCCS(=O)(=O)N[C@H](Cc1ccccc1)C(=O)N1CCC[C@H]1C(=O)N[C@H](C=O)CCCNC(=N)N.Cl [Example 53, N-(n-propylsulfonyl)-D-phenylalanyl-L-Prolinyl-L-Arginine Aldehyde Hydrochloride]	1,700 L/mol × 10^6	13 L/mol × 10^6	480 L/mol × 10^6	29 L/mol × 10^6	2.8 L/mol × 10^6	6 ng/mL	220 ng/mL	510 ng/mL	14%
Cl.N=C(N)NCCC[C@@H](C=O)NC(=O)[C@@H]1CCCN1C(=O)[C@@H](Cc1ccccc1)NS(=O)(=O)c1ccc(C(=O)O)cc1 [Example 62, N-(4-carboxyphenylsulfonyl)-D-phenylalanyl-L-Prolinyl-L-Arginine Aldehyde Hydrochloride]	70 L/mol × 10^6	2.0 L/mol × 10^6	43 L/mol × 10^6	7.0 L/mol × 10^6	1.1 L/mol × 10^6	120 ng/mL	1,200 ng/mL	3,000 ng/mL	13%
CCS(=O)(=O)N[C@H](CC1CCCCC1)C(=O)N1CCC[C@H]1C(=O)N[C@H](C=O)CCCNC(=N)N.Cl [Example 65, N-(ethylsulfonyl)-D-cyclohexylalanyl-L-Prolinyl-L-Arginine Aldehyde Hydrochloride]	550 L/mol × 10^6	20 L/mol × 10^6	200 L/mol × 10^6	45 L/mol × 10^6	0.73 L/mol × 10^6	25 ng/mL	260 ng/mL	730 ng/mL	19%
CS(=O)(=O)N[C@H](Cc1ccccc1)C(=O)N1CCC[C@H]1C(=O)N[C@H](C=O)CCCNC(=N)N.Cl [Example 51, N-(methylsulfonyl)-D-phenylalanyl-L-Prolinyl-L-Arginine Aldehyde Hydrochloride]	690 L/mol × 10^6	2.4 L/mol × 10^6	220 L/mol × 10^6	17 L/mol × 10^6	13 L/mol × 10^6	21 ng/mL	330 ng/mL	530 ng/mL	27%
